What was measured:
[1] = stability of the tablet / of efletirizine with pseudoephedrine; format: physicochemical; conditions: efletirizine and pseudoephedrine formulated together in the same segment
histamine H1-receptor = histamine H1-receptor (Homo sapiens, UniProt P35367); conditions: in vitro; cited from earlier work
Sequence of histamine H1-receptor (P35367 whole entry, species assumed): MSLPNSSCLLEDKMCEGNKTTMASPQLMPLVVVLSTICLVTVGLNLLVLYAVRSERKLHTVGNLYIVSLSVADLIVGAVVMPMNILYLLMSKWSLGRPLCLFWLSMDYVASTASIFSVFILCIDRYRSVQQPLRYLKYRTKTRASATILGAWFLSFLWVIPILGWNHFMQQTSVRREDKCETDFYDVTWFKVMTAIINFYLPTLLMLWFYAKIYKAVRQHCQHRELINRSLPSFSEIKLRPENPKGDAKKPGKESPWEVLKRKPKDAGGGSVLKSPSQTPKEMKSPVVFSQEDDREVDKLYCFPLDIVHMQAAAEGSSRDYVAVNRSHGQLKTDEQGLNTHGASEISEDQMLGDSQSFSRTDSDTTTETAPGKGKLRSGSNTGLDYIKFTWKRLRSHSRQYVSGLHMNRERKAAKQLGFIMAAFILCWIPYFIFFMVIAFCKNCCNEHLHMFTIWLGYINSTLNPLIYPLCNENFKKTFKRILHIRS

degradation of efletirizine [1]: a degradation of efletirizine appeared
SMILES: O=C(O)COCCN1CCN(C(c2ccc(F)cc2)c2ccc(F)cc2)CC1 [Efletirizine, 2-{2-[4-[bis(4-fluorophenyl)methyl)-1-piperazinyl]ethoxy}acetic acid]
affinity and selectivity for H1-receptors (histamine H1-receptor): high affinity and selectivity

Source: US20060122194A1, “Tablet comprising efletirizine and pseudoephedrine” (UCB Farchim S.A., priority 2002, published 2006)
